Results on 28 compounds are retold here after patent US20110190269A1, “GAMMA SECRETASE MODULATORS” (priority 2010, published 2011).

Where a name gives a salt, the structure may show the parent alone.

This experiment relates to γ-secretase. Nature of the experiment: Cellular γ-secretase assay (inhibition of Aβ42 secretion). The following applies: human neuroglioma H4 cells overexpressing human APP, 22 hrs incubation. The class given is cell-based. The method, then:
Human neuroglioma H4 cells overexpressing human APP were plated at 30,000 cells/well/[…] in 96-well plates in IMDM media containing 10% FCS, […] Hygromycin B and incubated for 2 h at 37° C., 5% CO2 prior to adding test compounds.
Compounds for testing were dissolved in 100% Me2SO yielding in a 10 mM stock solution. Typically […] of these solutions were further diluted in 1000 μl of IMDM media (w/o FCS). Subsequent 1:1 dilutions gave a ten point dose response curve. 100 μl of each dilution was added to the cells in 96-well plates. Appropriate controls using vehicle only and reference compound were applied to this assay. The final concentration of Me2S0 was 0.4%.
After incubation for 22 hrs at 37° C., 5% CO2, 50 μl supernatant was transferred into round-bottom 96-well polypropylene plates for detection of Aβ42. 50 μl assay buffer (50 mM Tris/Cl, pH 7.4, 60 mM NaCl, 0.5% BSA, 1% TWEEN 20) was added to the wells followed by the addition of 100 μl of detection antibody (ruthenylated BAP15 0.0625 μg/ml in assay buffer). 50 μl of a premix of capture antibody (biotinylated 6E10 antibody, 1 μg/ml) and Steptavidin-coated magnetic beads (Dynal M-280, 0.125 mg/ml) were preincubated for 1 hr at room temperature before adding the assay plates. Assay plates were incubated on a shaker for 3 hrs at room temperature and finally read in the Bioveris M8 Analyser according to the manufacturer's instructions (Bioveris).
IC50 values for inhibition of Aβ42 secretion were calculated by nonlinear regression fit analysis using XLfit 4.0 software (IDBS).
Usually EC50 stands for the midpoint of the concentration-response curve. A low value points to higher potency in that assay. Compound `COc1cc(Nc2nc3c(Cl)cc(C(F)(F)F)cn3n2)ccc1-n1cnc(C)c1` [Example 48, (8-Chloro-6-trifluoromethyl-[1,2,4]triazolo[1,5-a]pyridin-2-yl)-[3-methoxy-4-(4-methyl-imidazol-1-yl)-phenyl]-amine] returned an EC50 of 4510 nM.
`COc1cc(Nc2nc3c(C)cc(Cl)cn3n2)ccc1-n1cnc(C)c1` [Example 49, (6-Chloro-8-methyl-[1,2,4]triazolo[1,5-a]pyridin-2-yl)-[3-methoxy-4-(4-methyl-imidazol-1-yl)-phenyl]-amine] showed an EC50 of 1350 nM.
`COc1cc(Nc2nc3ccc(C)c(C)n3n2)ccc1-n1cnc(C)c1` [Example 50, (5,6-Dimethyl-[1,2,4]triazolo[1,5-a]pyridin-2-yl)-[3-methoxy-4-(4-methyl-imidazol-1-yl)-phenyl]-amine] gave an EC50 of 400 nM.
With `COc1cc(Nc2nc3c(-c4ccc(F)cc4)cccn3n2)ccc1-c1ccnc(C)c1` [Example 53, 8-(4-Fluorophenyl)-N-(3-methoxy-4-(2-methylpyridin-4-yl)phenyl)-[1,2,4]triazolo[1,5-a]pyridin-2-amine] the figure was 120 nM; with `COc1cc(Nc2nc3cccc(-c4ccc(F)cc4)n3n2)ccc1-c1ccnc(C)c1` [Example 54, 5-(4-Fluorophenyl)-N-(3-methoxy-4-(2-methylpyridin-4-yl)phenyl)-[1,2,4]triazolo[1,5-a]pyridin-2-amine], 110 nM.
With `COc1cc(Nc2nc3n(n2)C(c2ccc(F)cc2)CN(S(C)(=O)=O)C3)ccc1-n1cnc(C)c1` (stereo not shown) [Example 57, 5-(4-Fluorophenyl)-N-(3-methoxy-4-(4-methyl-1H-imidazol-1-yl)phenyl)-7-(methylsulfonyl)-5,6,7,8-tetrahydro-[1,2,4]triazolo[1,5-a]pyrazin-2-amine] the figure was 431 nM.
The compound `COc1cc(Nc2nc3n(n2)C(c2ccc(F)cc2)CN(CC(F)(F)F)C3)ccc1-n1cnc(C)c1` (stereo not shown) [Example 58, 5-(4-fluorophenyl)-N-(3-methoxy-4-(4-methyl-1H-imidazol-1-yl)phenyl)-7-(2,2,2-trifluoroethyl)-5,6,7,8-tetrahydro-[1,2,4]triazolo[1,5-a]pyrazin-2-amine] registered an EC50 of 538 nM.
With `COc1cc(Nc2nc3n(n2)CCN(C(=O)C(C)C)C3c2ccc(F)cc2)ccc1-n1cnc(C)c1` (stereo not shown) [Example 59, 1-(8-(4-Fluorophenyl)-2-(3-methoxy-4-(4-methyl-1H-imidazol-1-yl)phenylamino)-5,6-dihydro-[1,2,4]triazolo[1,5-a]pyrazin-7(8H)-yl)-2-methylpropan-1-one] the figure was 590 nM.
As to `COc1cc(Nc2nc3c(C)cnc(N4CCCC4)n3n2)ccc1-n1cnc(C)c1` [Example 60, [3-Methoxy-4-(4-methyl-imidazol-1-yl)-phenyl]-(8-methyl-5-pyrrolidin-1-yl-[1,2,4]triazolo[1,5-c]pyrimidin-2-yl)-amine], the EC50 came out at 672 nM.
Next, `COc1cc(Nc2nc3n(n2)C(c2ccc(Cl)cc2)CC(=O)N3)ccc1-n1cnc(C)c1` (stereo not shown) [Example 61, 7-(4-Chloro-phenyl)-2-[3-methoxy-4-(4-methyl-imidazol-1-yl)-phenylamino]-6,7-dihydro-4H-[1,2,4]triazolo[1,5-a]pyrimidin-5-one]: 831 nM.
In the case of `COc1cc(Nc2nc3c(-c4ccc(F)c(Cl)c4)cc(C)cn3n2)ccc1-n1cnc(C)c1` [Example 62, [8-(3-Chloro-4-fluoro-phenyl)-6-methyl-[1,2,4]triazolo[1,5-a]pyridin-2-yl]-[3-methoxy-4-(4-methyl-imidazol-1-yl)-phenyl]-amine], the EC50 was 10 nM.
In turn, `COc1cc(Nc2nc3c(-c4ccc(F)c(F)c4)cc(C)cn3n2)ccc1-n1cnc(C)c1` [Example 63, [8-(3,4-Difluoro-phenyl)-6-methyl-[1,2,4]triazolo[1,5-a]pyridin-2-yl]-[3-methoxy-4-(4-methyl-imidazol-1-yl)-phenyl]-amine] yielded an EC50 of 10 nM.
Next, `COc1cc(F)ccc1-c1cc(C)cn2nc(Nc3ccc(-n4cnc(C)c4)c(OC)c3)nc12` [Example 64, [8-(4-Fluoro-2-methoxy-phenyl)-6-methyl-[1,2,4]triazolo[1,5-a]pyridin-2-yl]-[3-methoxy-4-(4-methyl-imidazol-1-yl)-phenyl]-amine]: 73 nM; `COc1cc(Nc2nc3c(-c4ccc(F)cc4Cl)cc(C)cn3n2)ccc1-n1cnc(C)c1` [Example 65, [8-(2-Chloro-4-fluoro-phenyl)-6-methyl-[1,2,4]triazolo[1,5-a]pyridin-2-yl]-[3-methoxy-4-(4-methyl-imidazol-1-yl)-phenyl]-amine]: 24 nM; `COc1cc(Nc2nc3c(-c4ccc(F)cc4C)cc(C)cn3n2)ccc1-n1cnc(C)c1` [Example 66, [8-(4-Fluoro-2-methyl-phenyl)-6-methyl-[1,2,4]triazolo[1,5-a]pyridin-2-yl]-[3-methoxy-4-(4-methyl-imidazol-1-yl)-phenyl]-amine]: 238 nM.
With `COc1cc(Nc2nc3ncc(C#N)c(-c4ccccc4C)n3n2)ccc1-n1cnc(C)c1` [Example 67, 2-(3-Methoxy-4-(4-methyl-1H-imidazol-1-yl)phenylamino)-7-o-tolyl-[1,2,4]triazolo[1,5-a]pyrimidine-6-carbonitrile] the figure was 450 nM.
Next, `COc1cc(Nc2nc3nccc(-c4ccncc4)n3n2)ccc1-n1cnc(C)c1` [Example 68, N-(3-Methoxy-4-(4-methyl-1H-imidazol-1-yl)phenyl)-7-(pyridin-4-yl)-[1,2,4]triazolo[1,5-a]pyrimidin-2-amine]: 1170 nM; `COc1cc(Nc2nc3ncc(C#N)c(-c4ccccc4F)n3n2)ccc1-n1cnc(C)c1` [Example 69, 7-(2-Fluorophenyl)-2-(3-methoxy-4-(4-methyl-1H-imidazol-1-yl)phenylamino)-[1,2,4]triazolo[1,5-a]pyrimidine-6-carbonitrile]: 485 nM; `COc1ccccc1-c1c(C#N)cnc2nc(Nc3ccc(-n4cnc(C)c4)c(OC)c3)nn12` [Example 70, 2-(3-Methoxy-4-(4-methyl-1H-imidazol-1-yl)phenylamino)-7-(2-methoxyphenyl)-[1,2,4]triazolo[1,5-a]pyrimidine-6-carbonitrile]: 673 nM.
`COc1cc(Nc2nc3nccc(-c4ccc(F)cc4)n3n2)ccc1-n1cnc(C)c1` [Example 71, [7-(4-Fluoro-phenyl)-[1,2,4]triazolo[1,5-a]pyrimidin-2-yl]-[3-methoxy-4-(4-methyl-imidazol-1-yl)-phenyl]-amine] displayed an EC50 of 270 nM.
Next, `COc1cc(Nc2nc3c(C)cnc(OCC(F)(F)F)n3n2)ccc1-n1cnc(C)c1` [Example 72, [3-Methoxy-4-(4-methyl-imidazol-1-yl)-phenyl]-[8-methyl-5-(2,2,2-trifluoro-ethoxy)-[1,2,4]triazolo[1,5-c]pyrimidin-2-yl]-amine]: 355 nM; `COc1cc(Nc2nc3nccc(-c4ccc(F)c(Cl)c4)n3n2)ccc1-n1cnc(C)c1` [Example 73, 7-(3-Chloro-4-fluorophenyl)-N-(3-methoxy-4-(4-methyl-1H-imidazol-1-yl)phenyl)-[1,2,4]triazolo[1,5-a]pyrimidin-2-amine hydrochloride]: 359 nM; `COc1cc(Nc2nc3c(-c4ccc(F)cc4F)cc(C)cn3n2)ccc1-n1cnc(C)c1` [Example 74, 8-(2,4-Difluorophenyl)-N-(3-methoxy-4-(4-methyl-1H-imidazol-1-yl)phenyl)-6-methyl-[1,2,4]triazolo[1,5-a]pyridin-2-amine]: 35 nM.
Turning to `COc1cc(Nc2nc3c(-c4ccc(F)c(C(F)(F)F)c4)cc(C)cn3n2)ccc1-n1cnc(C)c1` [Example 75, 8-(4-Fluoro-3-(trifluoromethyl)phenyl)-N-(3-methoxy-4-(4-methyl-1H-imidazol-1-yl)phenyl)-6-methyl-[1,2,4]triazolo[1,5-a]pyridin-2-amine], the EC50 is 19 nM.
Next, `COc1cc(Nc2nc3c(-c4ccc(F)c(C)c4)cc(C)cn3n2)ccc1-n1cnc(C)c1` [Example 76, 8-(4-Fluoro-3-methylphenyl)-N-(3-methoxy-4-(4-methyl-1H-imidazol-1-yl)phenyl)-6-methyl-[1,2,4]triazolo[1,5-a]pyridin-2-amine]: 19 nM; `COc1cc(Nc2nc3c(-c4ccc(F)c(C#N)c4)cc(C)cn3n2)ccc1-n1cnc(C)c1` [Example 78, 2-Fluoro-5-(2-(3-methoxy-4-(4-methyl-1H-imidazol-1-yl)phenylamino)-6-methyl-[1,2,4]triazolo[1,5-a]pyridin-8-yl)benzonitrile]: 27 nM; `COc1cc(Nc2nc3nc(C(F)(F)F)cc(-c4ccc(F)c(Cl)c4)n3n2)ccc1-n1cnc(C)c1` [Example 79, 7-(3-Chloro-4-fluorophenyl)-N-(3-methoxy-4-(4-methyl-1H-imidazol-1-yl)phenyl)-5-(trifluoromethyl)-[1,2,4]triazolo[1,5-a]pyrimidin-2-amine acetate]: 73 nM.
Next, `COc1cc(Nc2nc3c(-c4ccc(F)c(F)c4)cc(C(F)(F)F)cn3n2)ccc1-n1cnc(C)c1` [Example 80, 8-(3,4-Difluorophenyl)-N-(3-methoxy-4-(4-methyl-1H-imidazol-1-yl)phenyl)-6-(trifluoromethyl)-[1,2,4]triazolo[1,5-a]pyridin-2-amine]: 121 nM.
